In patent US7951560B2, “Delta 4,5 glycuronidase compositions and methods related thereto” (Massachusetts Institute of Technology, priority 2002, dated 2011):

Columns and labels:
[1] = test system: Δ4, 5 glycuronidase; test: Extended timecourse hydrolysis of non-heparin disaccharides; type: biochemical, F. heparinum; settings: after approximately 18 hours, considerably higher enzyme concentrations
Protocol: None of the non-heparin disaccharides were hydrolyzed under the conditions for measuring substrate kinetics. […] At the same time, these disaccharides were slowly hydrolyzed to varying degrees when the enzyme reactions were conducted over a much longer timecourse (>12 hours) and at considerably higher enzyme concentrations. After approximately 18 hours, greater than 80% of monosulfated chondroitin disaccharide (ΔUGalNac6S) was hydrolyzed, whereas the non-sulfated chondroitin (ΔUGalNAc) and the hyaluronan disaccharide (ΔUH) were still present at approximately 40% and 65%, respectively. The importance of the linkage position is, therefore, not absolute. The apparently positive effect of chondroitin 6-O-sulfation within the galactosamine is consistent with our results for the heparin substrates and provides further evidence for the influence of this position in dictating substrate specificity.

[2] = target: T1, recombinant Δ4, 5 glycuronidase (Δ4,5^Δ20) (Pedobacter heparinus, UniProt C6Y1N7); test: Kinetic parameters of Δ4, 5 glycuronidase for disaccharide substrates (loss of absorbance at 232 nm, Michaelis-Menten fit); type: biochemical, F. heparinum; settings: conditions for measuring substrate kinetics
T1 sequence (C6Y1N7 21-402): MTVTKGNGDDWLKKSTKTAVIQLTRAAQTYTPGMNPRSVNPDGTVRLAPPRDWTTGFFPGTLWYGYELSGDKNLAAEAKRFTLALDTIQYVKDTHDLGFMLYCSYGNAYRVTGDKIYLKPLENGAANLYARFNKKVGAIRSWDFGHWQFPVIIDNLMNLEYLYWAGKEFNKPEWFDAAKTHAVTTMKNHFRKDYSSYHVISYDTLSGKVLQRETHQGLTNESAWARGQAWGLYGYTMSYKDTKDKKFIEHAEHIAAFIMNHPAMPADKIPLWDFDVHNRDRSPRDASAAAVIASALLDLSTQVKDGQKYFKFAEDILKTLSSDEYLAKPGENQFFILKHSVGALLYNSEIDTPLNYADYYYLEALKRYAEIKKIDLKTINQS
Protocol: Assay for enzyme activity and determination of kinetic parameters. Standard reactions were carried out at 30° C. and included 100 mM sodium phosphate buffer, pH 6.4, 50 mM NaCl, 500 μM disaccharide substrate and 200 nM enzyme in a 100 μl reaction volume. Hydrolysis of heparin disaccharides was determined spectrophotometrically by measuring the loss of the Δ4, 5 chromophore measured at 232 nm Substrate hydrolysis was calculated using the following molar extinction coefficients empirically determined for each disaccharide substrate: ΔUHNAc, ε232=4,524; ΔUHNAc6S, ε232=4,300; ΔUHNS, ε232=6,600; ΔUHNS,6S, ε232=6,075; ΔUHNH26S, ε232=4,826; ΔU2SHNS, ε232=4,433. Initial rates (Vo) were extrapolated from linear activities representing <10% substrate turnover and fit to pseudo first-order kinetics. For kinetic experiments, disaccharide concentration for each respective substrate was varied from 48 to 400 μM concentrations. Km and kcat values were extrapolated from Vo vs. [S] curves fit to the Michaelis Menten equation by a non-linear, least squares regression.
The specificity of the Δ4, 5 glycuronidase acting on various glycosaminoglycan disaccharide substrates was investigated. The various substrates examined included both heparin and chondroitin disaccharides as well as an hyaluronadate. In particular, we considered the possibility of any structural discriminations pertaining to glycosidic linkage position (1→4 vs. 1→3) and relative sulfation state within the disaccharide. For each substrate, kinetic parameters were determined based on substrate saturation profiles that fit Michaelis-Menten assumptions (FIG. 8).

[3] = test system: Δ4, 5 glycuronidase; test: Detection of Δ4, 5 glycuronidase activity by capillary electrophoresis on heparinase-digested heparin; type: biochemical, F. heparinum
Protocol: Detection of Δ4, 5 glycuronidase activity by capillary electrophoresis. 200 μg of heparin (Celsus Laboratories) was subject to exhaustive heparinase digestion as described [Venkataraman, G., Shriver, Z., Raman, R., and Sasisekharan, R., 1999, Science 286, 537-42] with certain modifications that included a 50 mM PIPES buffer, pH 6.5 with 100 mM NaCl in a 100 μl reaction volume. Following heparinase treatment, 25 picomoles of Δ4, 5 glycuronidase was added to one-half of the original reaction (pre-equilibrated at 30° C.). 20 μl aliquots were removed at 1 minute and 30 minutes and activity quenched by heating at 95° C. for 10 minutes. 20 μl of the minus Δ4, 5 control (also heated for 10 minutes) was used as the 0 time point. Disaccharide products were resolved by capillary electrophoresis run for 25 minutes under positive polarity mode as previously described [Rhomberg, A. J., Ernst, S., Sasisekharan, R., and Biemann, K., 1998, Proc Natl Acad Sci USA 95, 4176-81].
In this manner, the Δ4, 5 should be very useful in assessing the composition of disaccharides resulting from prior heparinase treatment of heparin/heparan sulfate. For this particular experiment, we pre-treated 200 μg of heparin with a heparinase cocktail. This exhaustive digestion was then directly followed by a relatively short (1 minute) or long (30 minute) Δ4, 5 glycuronidase treatment carried out under optimal reaction conditions. The disaccharide products were then resolved by capillary electrophoresis. The electrophoretic mobility profile for the Δ4, 5 treated saccharides were then directly compared to the untreated control (i.e., heparinase treatment only) run under identical conditions (FIG. 9). 7 disaccharide peaks were present in the capillary electrophoretogram corresponding to the heparinase only control (A.). A structural assignment for each one of these peaks was made based on previously established compositional analyses. […] Predictably, the relative amplitude and area of these peaks remained the same, over the entire timecourse of the Δ4, 5 preincubation. This unchanging result extended to 18 hours. On the other hand, peaks corresponding to disaccharides lacking the 2-O sulfate were eliminated.

[4] = Pilot expression of the full-length enzyme in E. coli: solubility and activity
Text: Using PCR, we cloned from the F. heparinum genome both the full-length enzyme and the “mature” enzyme lacking the N-terminal 20 amino acid signal sequence (Δ4,5^Δ20) into a T7-based expression plasmid. Cloning into pET28a permitted the expression of the glycuronidase as an N-terminal 6× His-tag fusion protein. Pilot expression studies focused on the full-length enzyme. In these initial experiments, we examined several different induction conditions such as temperature, time and length of induction, and even IPTG concentrations.

`CC(=O)NC1C(O)OC(CO)C(O)C1OC1OC(C(=O)O)=CC(O)C1O` (stereo not shown) [ΔUH] gave a disaccharide still present [1] of roughly 65%.

For `N[C@H]1C(O)O[C@H](COS(=O)(=O)O)[C@@H](O[C@@H]2OC(C(=O)O)=C[C@H](O)[C@H]2O)[C@@H]1O` (stereo partly shown) [ΔUHNH2, 6S], the “substrate status / substrate preference” value [2] was “less good as substrates”.

In the case of `CC(=O)NC1C(O)OC(CO)C(O)C1OC1OC(C(=O)O)=CC(O)C1O` (stereo not shown) [ΔUGalNAc], the disaccharide still present [1] is reported as “approximately 40%”.

For `O=C(O)C1=C[C@H](O)[C@@H](O)[C@H](O[C@H]2[C@H](O)[C@@H](NS(=O)(=O)O)C(O)O[C@@H]2CO)O1` (stereo partly shown) [ΔUHNS], the “substrate status / substrate preference” value [2] was “less good as substrates”, the “hydrolysis by 30 minutes Δ4, 5 treatment” value [3] was “completely depleted” and the “hydrolyzed after 1 minute Δ4, 5 treatment” value [3] was roughly 50%.

With `O=C(O)C1=C[C@H](O)[C@@H](O)[C@H](O[C@H]2[C@H](O)[C@@H](NS(=O)(=O)O)C(O)O[C@@H]2COS(=O)(=O)O)O1` (stereo partly shown) [ΔUHNS, 6S] the “substrate status / substrate preference” value [2] was “roughly in the middle”, the “hydrolysis by 30 minutes Δ4, 5 treatment” value [3] was “completely depleted” and the “hydrolyzed after 1 minute Δ4, 5 treatment” value [3] was “approximately 75%”.

In the case of `CC(=O)N[C@H]1C(O)O[C@H](COS(=O)(=O)O)[C@@H](O[C@@H]2OC(C(=O)O)=C[C@H](O)[C@H]2O)[C@@H]1O` (stereo partly shown) [ΔUHNAc, 6S], the “substrate status / substrate preference” value [2] is reported as “best substrates” and the “hydrolysis after one minute Δ4, 5 treatment (in words)” value [3] is reported as “essentially hydrolyzed”.

For `O=C(O)C1=C[C@H](O)[C@@H](OS(=O)(=O)O)[C@H](O[C@H]2[C@H](O)[C@@H](NS(=O)(=O)O)[C@@H](O)O[C@@H]2CO)O1` [ΔU2SHNS], the “substrate status / substrate preference” value [2] was “not a substrate”.

In the case of `CC(=O)N[C@H]1C(O)O[C@H](CO)[C@@H](O[C@@H]2OC(C(=O)O)=C[C@H](O)[C@H]2O)[C@@H]1O` (stereo partly shown) [ΔUHNac], the “substrate status / substrate preference” value [2] is reported as “best substrates”.

For `CC(=O)N[C@H]1C(O)O[C@H](COS(=O)(=O)[O-])[C@H](O)[C@@H]1OC1OC(C(=O)[O-])=C[C@H](O)[C@H]1O.[Na+].[Na+]` (stereo partly shown) [ΔUGalNac6S], the disaccharide hydrolyzed [1] was “greater than 80%”.

B1: full-length enzyme: full-length 402 amino acid Δ4, 5 glycuronidase, SEQ ID NO:3, expressed as N-terminal 6× His-tag fusion (protein, listed as Flavobacterium heparinum)
chain: MKSLLSAFVATIALIGSANGMTVTKGNGDDWLKKSTKTAVIQLTRAAQTYTPGMNPRSVNPDGTVRLAPPRDWTTGFFPGTLWYGYELSGDKNLAAEAKRFTLALDTIQYVKDTHDLGFMLYCSYGNAYRVTGDKIYLKPLENGAANLYARFNKKVGAIRSWDFGHWQFPVIIDNLMNLEYLYWAGKEFNKPEWFDAAKTHAVTTMKNHFRKDYSSYHVISYDTLSGKVLQRETHQGLTNESAWARGQAWGLYGYTMSYKDTKDKKFIEHAEHIAAFIMNHPAMPADKIPLWDFDVHNRDRSPRDASAAAVIASALLDLSTQVKDGQKYFKFAEDILKTLSSDEYLAKPGENQFFILKHSVGALLYNSEIDTPLNYADYYYLEALKRYAEIKKIDLKTINQS
modifications: N-terminal 6xHis tag
For B1, the “solubility on recombinant expression” value ([4]; N-terminal 6× His-tag fusion, all induction conditions examined) was “nearly exclusively as an insoluble fraction” and the “activity of partially purified, solubilised enzyme” value ([4]; solubilised with detergents (e.g., CHAPS), salt, glycerol) was “largely inactive”.
